# What was measured:
# [1] = test system: Collagen I; assay: Real-time RT-PCR in cultured PMCs exposed to PDF; format: cell-based; conditions: rat PMCs, 1.5% PDF diluted 1:1 in culture medium, 24 hours, aliskiren 10-100 μM, FIG. 9
# Method: (§1) After incubating the rat PMCs in 1.5% PDF diluted 1:1 in culture medium for 24 hours, in the presence or absence of carrier or different concentrations of aliskiren (10-100 μM), total RNA was isolated and real-time RT-PCR was carried out as described in Material and Methods. The data is expressed as mean±SEM, n=3. * p<0.05 compared to untreated cells (control). # p<0.05, compared to cells treated with 1.5% PDF in the presence of carrier (0).
# (§2) Rat peritoneal mesothelial cells were isolated by enzymatic digestion in accordance with protocols described in Hjelle J T, Golinska B T, Waters D C, et al. Perit Dial Int 1989; 9: 341-7. […]
# (§3) The RNA expression was evaluated by real-time RT-PCR in PMCs. […] RNA quality and concentration was evaluated by spectrophotometry (Infinite 200, Tecan, Salzburg, Austria) using 1 μl of the RNA sample. […] The dissociation curves were analysed to confirm the amplification of a single PCR product. […] In each experiment, the mean cycle threshold (CT) was calculated from triplicates for each of the genes studied, enabling comparison of the gene expression after different treatments (Methods 25, 402-408 (2001). In order to normalize the data, the gene expression of β-actin was used as endogenous control.
# [2] = test system: fibronectin; assay: Real-time RT-PCR in cultured PMCs exposed to PDF; format: cell-based; conditions: rat PMCs, 1.5% PDF diluted 1:1 in culture medium, 24 hours, aliskiren 10-100 μM, FIG. 11
# Method: as §1, §2, §3
compound,measurement,setting,value
COCCCOc1cc(C[C@@H](C[C@H](N)[C@@H](O)C[C@H](C(=O)NCC(C)(C)C(N)=O)C(C)C)C(C)C)ccc1OC [aliskiren],RNAm levels for collagen I,[1],lowered
same,RNAm levels for fibronectin,[2],lowered

# — US20130065964A1, “PERITONEAL DIALYSIS SOLUTION” (UNIVERSIDAD DE CASTILLA LA MANCHA, priority 2010, published 2013)
